Measured values from patent publication US10000483B2, “Bone marrow on X chromosome kinase (BMX) inhibitors and uses thereof” (Dana-Farber Cancer Institute, Inc., priority 2012, dated 2018).

How the values were obtained:
BCWM.1 cells = assay: Cell proliferation analysis for WM and lymphoma cell lines (CellTiter-Glo); assay type: cell-based; details: BCWM1; 72 hours
Description: (§3) Various cell lines were used including Waldenström's macroglobulinemia (WM) cell lines (BCWM.1, MWCL-1, RPCI-WM1) and B-cell lymphoma cell lines (OCI-Ly3, Ramos, OCI-Ly19). Cells were seeded into 384 well plates with the EL406 Combination Washer Dispenser (BioTek Instruments, Inc.) and inhibitor compounds were injected into the cells culture media with the JANUS Automated Workstation (PerkinElmer Inc.).

[1] = tested on: TEL-BLK transformed Ba/F3 cells; assay: cells; details: Mus musculus, BaF3, read-out: GI50, TEL-BLK
PIK4CB = PIK4CB (Homo sapiens (Human), UniProt Q9UBF8); assay: Kinase panel at 1 uM (Table 9); assay type: binding; details: read-out: % inhibition at 1 uM, PIK4CB
Source text: (§4) Screening hits are identified by measuring the amount of protein captured in test versus control samples by using a quantitative, precise, and ultra-sensitive qPCR method that detects the associated DNA label.

DYRK1B = DYRK1B (Homo sapiens (Human), UniProt Q9Y463); assay: Kinase panel at 1 uM (Table 9); assay type: binding; details: read-out: % inhibition at 1 uM, DYRK1B
Source text: as §4

TEC [2] = molecular target: T1, TEC (Homo sapiens (Human), UniProt P42680); assay: DiscoverX binding assay
Source text: as §4

JNK1 = JNK1 (Homo sapiens (Human), UniProt P45983); assay: Kinase panel at 1 uM (Table 9); assay type: binding; details: read-out: % inhibition at 1 uM, JNK1
Source text: as §4

FAK pY576/577 = assay: FAK pYpY phosphorylation blot in RV1 cells cotransfected with BMX and FAK; assay type: cell-based; details: FIG. 17
[3] = tested on: TEL-JAK1 transformed Ba/F3 cells; assay: cells; details: Mus musculus, BaF3, read-out: GI50, TEL-JAK1
EGFR(T790M) = EGFR(T790M) (Homo sapiens (Human), UniProt P00533, T790M); assay: DiscoverX binding assay
Source text: as §4

MEK5 = MEK5 (Homo sapiens (Human), UniProt Q13163); assay: Kinase panel at 1 uM (Table 9); assay type: binding; details: read-out: % inhibition at 1 uM, MEK5
Source text: as §4

BMX [4] = molecular target: T2, BMX (Homo sapiens (Human), UniProt P51813); assay: BMX autophosphorylation in RV-1 cells; assay type: cell-based
IRAK3 = IRAK3 (Homo sapiens (Human), UniProt Q9Y616); assay: Kinase panel at 1 uM (Table 9); assay type: binding; details: read-out: % inhibition at 1 uM, IRAK3
Source text: as §4

MWCL-1 cells = assay: Cell proliferation analysis for WM and lymphoma cell lines (CellTiter-Glo); assay type: cell-based; details: 72 hours
Description: as §3

[5] = tested on: TYK2E957D transformed Ba/F3 cells; assay: cells; details: Mus musculus, BaF3, read-out: GI50, TYK2E957D
PIK3CG = PIK3CG (Homo sapiens (Human), UniProt P48736); assay: Kinase panel at 1 uM (Table 9); assay type: binding; details: read-out: % inhibition at 1 uM, PIK3CG
Source text: as §4

RV1 cells = assay: Prostate cancer cell apoptosis, cleaved caspase 3; assay type: cell-based
Source text: Caspase-3 positive cells were counted and normalized to total cell number (N=5).

YSK4 = YSK4 (Homo sapiens (Human), UniProt Q56UN5); assay: Kinase panel at 1 uM (Table 9); assay type: binding; details: read-out: % inhibition at 1 uM, YSK4
Source text: as §4

BMX [6] = molecular target: T2, BMX; assay: Invitrogen Select Screening in vitro kinase assay; assay type: biochemical
TEC [7] = molecular target: T1, TEC; assay: Invitrogen Select Screening in vitro kinase assay; assay type: biochemical
Source text: (§1) The in vitro activity of compounds of Formula (I) and (II) in inhibiting BMX and other kinases were obtained using an Invitrogen Select Screening assay as known in the art. The IC50 values determined from this assay are shown below.

mTOR [8] = molecular target: T3, mTOR (Homo sapiens (Human), UniProt P42345); assay: Invitrogen Select Screening in vitro kinase assay; assay type: biochemical
Source text: as §1

BLK = BLK (Homo sapiens (Human), UniProt P51451); assay: Invitrogen Select Screening in vitro kinase assay; assay type: biochemical
Source text: as §1

BMX [9] = molecular target: T2, BMX; assay: DiscoverX binding assay
Source text: as §4

BMX (C496S) = BMX (C496S) (Homo sapiens (Human), UniProt P51813, C496S); assay: IP kinase assay, BMX autophosphorylation; assay type: biochemical; details: FIG. 15A
Source text: (§2) FIG. 15 confirms that the potency of the BMX inhibitors is due to covalent binding to cysteine 496.

wild-type (WT) BMX = wild-type (WT) BMX (Homo sapiens (Human), UniProt P51813); assay: IP kinase assay, BMX autophosphorylation; assay type: biochemical; details: FIG. 15
Source text: as §2

DYRK2 = DYRK2 (Homo sapiens (Human), UniProt Q92630); assay: Kinase panel at 1 uM (Table 9); assay type: binding; details: read-out: % inhibition at 1 uM, DYRK2
Source text: as §4

OCI-Ly3 cells = assay: Cell proliferation analysis for WM and lymphoma cell lines (CellTiter-Glo); assay type: cell-based; details: Homo sapiens, 72 hours
Description: as §3

PIK3CA(I800L) = PIK3CA(I800L) (Homo sapiens (Human), UniProt P42336, I800L); assay: Kinase panel at 1 uM (Table 9); assay type: binding; details: read-out: % inhibition at 1 uM, PIK3CA(I800L)
Source text: as §4

C4-2 cells = assay: cells; details: C4-2, read-out: GI50, C4-2
Description: (§5) Data were normalized to control group (DMSO) and represented by the mean of at least two independent measurement with standard error <20%. GI50 were calculated using Prism 5.0 (GraphPad Software, San Diego, Calif.).

[10] = tested on: TEL-JAK2 transformed Ba/F3 cells; assay: cells; details: Mus musculus, BaF3, read-out: GI50, TEL-JAK2
PIP5K2C = PIP5K2C (Homo sapiens (Human), UniProt Q8TBX8); assay: Kinase panel at 1 uM (Table 9); assay type: binding; details: read-out: % inhibition at 1 uM, PIP5K2C
Source text: as §4

ITK = ITK (Homo sapiens (Human), UniProt Q08881); assay: Invitrogen Select Screening in vitro kinase assay; assay type: biochemical
VACP cells = assay: cells; details: read-out: GI50, VACP
Description: as §5

mTORC1 = mTORC1 (Homo sapiens (Human), UniProt P42345); assay: Invitrogen Select Screening in vitro kinase assay; assay type: biochemical
[11] = tested on: TEL-BMX transformed Ba/F3 cells; assay: cells; details: Mus musculus, BaF3, read-out: GI50, TEL-BMX
mTOR [12] = molecular target: T3, mTOR; assay: DiscoverX binding assay; details: read-out: % inhibition at 1 uM, MTOR
Source text: as §4

In the case of `C=CC(=O)Nc1cc(-n2c(=O)ccc3cnc4ccc(-c5ccc(NS(C)(=O)=O)cc5)cc4c32)ccc1C` [I-14], the EC50 (BCWM.1 cells) is reported as 1100 nM, the GI50 [1] is reported as 3640 nM and the inhibition at 1 µM (PIK4CB) is reported as 79%. For the same compound, the inhibition at 1 µM (DYRK1B) was 100%, the “Percent Control, TEC” value (TEC [2]) was 27% and the inhibition at 1 µM (JNK1) was 93%. The “BMX mediated phosphorylation of pYpY site on FAK” value (FAK pY576/577) was “inhibits BMX mediated phosphorylation of pYpY site on FAK”, the GI50 [3] was 4920 nM and the “Percent Control, EGFR(T790M)” value (EGFR(T790M); DiscoverX binding) was 2.1%. The inhibition at 1 µM (EGFR(T790M); read-out: % inhibition at 1 uM, EGFR(T790M)) was 11%, the inhibition at 1 µM (MEK5) was 100% and the “concentration sufficient to inhibit BMX autophosphorylation in RV-1 cells” value (BMX [4]) was ≤ 1 µM. For the same compound, the inhibition at 1 µM (IRAK3) was 73%, the EC50 (MWCL-1 cells) was 1390 nM and the GI50 [5] was 6090 nM. For the same compound, the inhibition at 1 µM (PIK3CG) was 2.8%, the “cell numbers and apoptosis by Caspase 3 staining” value (RV1 cells; 5 pM concentration (so in the source)) was “reduced cell numbers and induced apoptosis” and the “concentration causing apoptosis based on increased cleaved caspase 3” value (RV1 cells; FIG. 18C) was 10 to 20 µM. It also gave an inhibition at 1 µM (YSK4) of 100%, an IC50 (BMX [6]) of 7.99 nM and an IC50 (TEC [7]) of 653 nM. For the same compound, the IC50 (mTOR [8]) was 325 nM, the IC50 (BLK) was 377 nM and the “Percent Control, BMX” value (BMX [9]) was 29%. For the same compound, the “concentration inhibiting autophosphorylation of BMX (C496S)” value (BMX (C496S)) was > 10,000 nM, the “concentration inhibiting autophosphorylation of wild-type BMX” value (wild-type (WT) BMX) was 10 to 100 nM and the inhibition at 1 µM (DYRK2) was 100%. The EC50 (OCI-Ly3 cells) was > 20000 nM, the inhibition at 1 µM (PIK3CA(I800L)) was 46% and the GI50 (C4-2 cells) was > 10000 nM. For the same compound, the GI50 [10] was 5830 nM, the inhibition at 1 µM (PIP5K2C) was 5.6% and the IC50 (ITK) was 5250 nM. The GI50 (VACP cells) was 2460 nM, the IC50 (mTORC1) was 7400 nM and the GI50 [11] was 25 nM. The inhibition at 1 µM (mTOR [12]) was 45%.
